In series [1] the target is sheep lung lymph tryptase. The series can be described thus: Inactivation rate of sheep lung lymph tryptase. It counts as biochemical. The conditions noted are these: Table III; 0.1M Hepes, 0.5M NaCl, pH 7.0, 25° C. Here is the method: Inactivation rates of serine proteases by substituted isocoumarins were measured by the incubation method. An aliquot of inhibitor (25 or 50 μl) in Me2 SO was added to a buffered enzyme solution (0.01-2.3 μM) to initiate the inactivation. Aliquots (50 μl) were withdrawn at various intervals and the residual enzymatic activity was measured. […] 0.1 Hepes, 0.01M CaCl2, pH 7.5 buffer was utilized for trypsin and coagulation enzymes. […] The inhibitor concentrations are shown in all the tables. Peptide thioesters or peptide nitroanilides with appropriate sequence were used as substrates for various serine proteases.
^a Inactivation rates were measured at 0.1M Hepes, 0.5M NaCl, pH 7.5
buffer, 8% Me2 SO and 25° C.

Another series addresses complement protein B (Homo sapiens, UniProt P00751). The series can be described thus: Inactivation rate of complement protein B. It counts as biochemical. Here is the method:
(§1) Inactivation rates of serine proteases by substituted isocoumarins were measured by the incubation method. An aliquot of inhibitor (25 or 50 μl) in Me2 SO was added to a buffered enzyme solution (0.01-2.3 μM) to initiate the inactivation. Aliquots (50 μl) were withdrawn at various intervals and the residual enzymatic activity was measured. Me2 SO concentration in the reaction mixture was 8-12% (v/v). 0.1 Hepes, 0.01M CaCl2, pH 7.5 buffer was utilized for trypsin and coagulation enzymes. 0.1M Hepes, 0.5M NaCl, pH 7.5 was utilized for other serine proteases. The inhibitor concentrations are shown in all the tables. Peptide thioesters or peptide nitroanilides with appropriate sequence were used as substrates for various serine proteases. All peptide thioester hydrolysis rates were measured with assay mixtures containing 4,4'-dithiodipyridine (ε324 =19800M^-1 cm^-1; Grasetti & Murray, Arch. Biochem. Biophys. 119, pp 41-49 (1967)). Peptide 4-nitroanilide nitroanilide hydrolysis was measured at 410 nm (ε410 =8800M^-1 cm^-1; Erlanger et al., Arch. Biochem. Biophys. 95, pp 271-278 (1961)). First order inactivation rate constant (kobs) were obtained from plots of ln (vt /vo) vs time, and the correlation coefficients were greater than 0.98.
(§2) ^a Conditions were 0.1M Hepes, 0.5M NaCl, pH 7.5, 8-10% Me2 SO
(§3) and 25° C. Inactivation rates were measured by incubation method.
(§4) Enzyme concentrations were as follows: protein D, 1-9 μM; C2, 0.7-1
(§5) μM; B, 1.8 μM; Bb, 0.3-0.8 μM; Cl^- s, 0.07 μM; Cl^-

In the next series the target is T1, complement protein C2 (Homo sapiens, UniProt P06681).
T1 sequence (P06681 21-752): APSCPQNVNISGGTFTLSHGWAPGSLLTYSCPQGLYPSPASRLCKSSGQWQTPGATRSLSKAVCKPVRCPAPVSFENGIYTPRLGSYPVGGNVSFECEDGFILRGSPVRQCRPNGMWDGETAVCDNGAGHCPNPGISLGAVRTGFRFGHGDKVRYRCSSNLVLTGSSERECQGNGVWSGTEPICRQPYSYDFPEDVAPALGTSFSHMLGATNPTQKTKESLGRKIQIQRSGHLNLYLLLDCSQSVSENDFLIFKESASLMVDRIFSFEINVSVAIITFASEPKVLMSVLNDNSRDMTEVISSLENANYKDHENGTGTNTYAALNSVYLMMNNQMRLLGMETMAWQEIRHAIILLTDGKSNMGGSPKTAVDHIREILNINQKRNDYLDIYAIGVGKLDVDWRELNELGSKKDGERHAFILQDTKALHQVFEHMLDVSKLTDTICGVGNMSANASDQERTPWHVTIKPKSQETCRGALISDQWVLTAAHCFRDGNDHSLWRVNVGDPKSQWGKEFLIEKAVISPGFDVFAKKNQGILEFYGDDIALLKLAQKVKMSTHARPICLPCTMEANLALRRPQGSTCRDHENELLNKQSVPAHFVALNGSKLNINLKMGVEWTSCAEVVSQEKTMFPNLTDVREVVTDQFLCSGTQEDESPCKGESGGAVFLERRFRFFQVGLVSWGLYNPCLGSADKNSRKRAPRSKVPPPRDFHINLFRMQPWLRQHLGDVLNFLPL
The series can be described thus: Inactivation rate of complement protein C2. It counts as biochemical. The method, then:
as §1, §2, §3, §4, §5

The target in a further series is complement protein D (Homo sapiens, UniProt P00746). The series can be described thus: Inactivation rate of complement protein D. In kind it is biochemical. The note with it: Table II; pH 7.5, 25° C; [I] 0.05 to 1.29 mM. Here is the method: as §1, §2, §3, §4, §5
The target of the next series is human lung tryptase. The series can be described thus: Inactivation rate of human lung tryptase. It counts as biochemical. The conditions noted are these: Table IX; pH 7.5, 25° C; [I] 0.42-0.47 μM. The gist of the method: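 Incubation method in 0.1M Hepes, 0.5M NaCl, pH 7.5, 8% Me2SO, 25° C; inhibitor added to enzyme, aliquots withdrawn over time for residual activity. Substrate ZArg-SBzl (0.07 mM) with 4,4'-dithiodipyridine (0.33 mM). kobs from ln(vt/vo) vs time plots.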

A further series has as its target T2, human factor Xa (Homo sapiens, UniProt P00742).
T2 construct: human factor Xa
The series can be described thus: Inactivation rate of human factor Xa. It counts as biochemical. The note with it: Table VIII; pH 7.5, 25° C; [I] 3.6-44 μM; read-out: kobs/[I]. Here is the method:
as §1
^a Conditions were as 0.1M Hepes, 0.01M CaCl2, pH 7.5 and 8-12%
Me2 SO and 25° C. Rate constants were measured by incubation
method unless otherwise noted. An aliquot of inhibitor was added to an
enzyme solution and aliquots removed with time and assayed for remaining
enzymatic activity. Firstorder rate constants, kobs were obtained
from the plots of ln(vt /vo) versus time.
(§6) ^a Inhibition rates were measured in 0.1M Hepes, 0.01M CaCl2, pH
7.5 buffer, 8% Me2 SO and at 25° C.

For another series, the target named is T3, human factor XIIa (Homo sapiens, UniProt P00748).
T3 construct: human factor XIIa
T3 sequence (P00748 373-615 limits assumed): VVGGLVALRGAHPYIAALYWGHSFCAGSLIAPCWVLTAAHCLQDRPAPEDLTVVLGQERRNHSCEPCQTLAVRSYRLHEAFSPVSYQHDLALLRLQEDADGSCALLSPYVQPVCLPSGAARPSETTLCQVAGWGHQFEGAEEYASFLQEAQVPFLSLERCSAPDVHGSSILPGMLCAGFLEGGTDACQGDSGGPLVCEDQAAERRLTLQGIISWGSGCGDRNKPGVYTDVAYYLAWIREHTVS
T3 sequence (P00748 20-372 partner limits assumed): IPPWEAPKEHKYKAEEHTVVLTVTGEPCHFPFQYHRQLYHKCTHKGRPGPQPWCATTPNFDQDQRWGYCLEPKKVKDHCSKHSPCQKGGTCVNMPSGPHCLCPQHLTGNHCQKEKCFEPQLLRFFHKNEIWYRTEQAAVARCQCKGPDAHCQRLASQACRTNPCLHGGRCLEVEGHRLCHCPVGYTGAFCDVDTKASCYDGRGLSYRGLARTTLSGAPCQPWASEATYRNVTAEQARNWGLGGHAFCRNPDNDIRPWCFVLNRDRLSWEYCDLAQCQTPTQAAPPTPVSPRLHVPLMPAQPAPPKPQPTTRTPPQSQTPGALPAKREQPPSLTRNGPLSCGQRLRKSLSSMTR
The series can be described thus: Inactivation rate of human factor XIIa. In kind it is biochemical. The note with it: Table VIII; pH 7.5, 25° C; [I] 3.6-4.9 μM; read-out: kobs/[I]. The gist of the method: (§7)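 Incubation method: isocoumarin inhibitor in Me2SO added to enzyme (0.01-2.3 μM) in 0.1M Hepes, 0.01M CaCl2, pH 7.5, 8-12% Me2SO, 25° C; aliquots withdrawn over time for residual activity against peptide thioester or 4-nitroanilide substrates. kobs from ln(vt/vo) vs time.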

For another series, the target named is T4, human thrombin (Homo sapiens, UniProt P00734).
T4 construct: human thrombin
The series can be described thus: Inactivation rate of human thrombin. In kind it is biochemical. The conditions noted are these: Table VIII; pH 7.5, 25° C; [I] 1.2-54 μM; read-out: kobs/[I]. The gist of the method:
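Incubation method: enzyme (0.01-2.3 μM) mixed with inhibitor in 0.1M Hepes, 0.01M CaCl2, pH 7.5, 8% Me2SO, 25° C; residual activity sampled over time with peptide thioester or 4-nitroanilide substrates. kobs from ln(vt/vo) vs time plots.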

The target of a further series is T5, bovine thrombin (Bos taurus, UniProt P00735).
T5 construct: bovine thrombin
The series can be described thus: Inactivation rate of bovine thrombin. In kind it is biochemical. The conditions noted are these: Table VIII; pH 7.5, 25° C; [I] 1.2-54 μM; read-out: kobs/[I]. The gist of the method:
as §7

The target of the next series is T6, rat skin tryptase (Rattus norvegicus, UniProt P27435).
T6 construct: from tissue; host or cells: rat skin
The series can be described thus: Inactivation rate of rat skin tryptase. It counts as biochemical. The conditions noted are these: pH 7.5, Table IX; pH 7.5, 25° C; [I] 0.42-0.51 μM; read-out: kobs/[I]. The gist of the method: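 Rat skin tryptase incubated with isocoumarin inhibitor in 25 mM phosphate, 0.5 M NaCl, 1 mM EDTA, pH 7.5, 8-9% Me2SO, 25 °C; aliquots withdrawn over time for residual activity on ZArg-SBzl (0.07 mM) with 4,4'-dithiodipyridine (0.33 mM). First-order kobs from ln(vt/vo) versus time.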

In the next series the target is human skin tryptase. The series can be described thus: Inhibition of human skin tryptase. The note with it: Table IX; pH 7.5, 25° C; [I] 0.34-0.39 μM. It counts as biochemical. Here is the method: as §1, §6
7.5 buffer for human plasmin; 25 mM Phosphate, 0.5M NaCl, 1 mM EDTA, pH
7.5 buffer for rat skin tryptase and 0.1M Hepes, 0.5M NaCl, pH 7.5 for
human lung tryptase, human skin tryptase and rt-PA. All enzymes were
assayed with ZArg-SBzl (0.07 mM) in the presence of 4,4dithiodipyridine
(0.33 mM). Reaction mixtures contained 8% Me2 SO and assays were […]

The target in series [2] is recombinant human tissue plasminogen activator (Homo sapiens, UniProt P00750). The series can be described thus: Inactivation rate of recombinant human tissue plasminogen activator. In kind it is biochemical. The note with it: pH 7.5, Table IX; pH 7.5, 25° C; [I] 3.5-5.0 μM; read-out: kobs/[I]. The gist of the method:
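Incubation method: enzyme mixed with inhibitor in Me2SO (8–12% v/v) in 0.1M Hepes, 0.5M NaCl, pH 7.5; aliquots withdrawn over time for residual activity with ZArg-SBzl (0.07 mM) plus 4,4'-dithiodipyridine (0.33 mM). kobs taken from ln(vt/vo) versus time plots.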

The nature of series [3]: Spontaneous hydrolysis in Hepes buffer. The note with it: 0.1 Hepes, 0.5M NaCl, pH 7.5, 9% Me2SO, 25° C. It counts as physicochemical. Here is the method:
^a Conditions were 0.1 Hepes, 0.5M NaCl, pH 7.5 and 9% Me2 SO at
25° C. Spontaneous hydrolysis rates were measured
spectrophotometrically by monitoring the decrease in absorbance due to th
isocoumarin ring system (wavelength 335-380 nm) using the firstorder rate

The next series concerns the target T7, bovine trypsin (Bos taurus, UniProt P00760).
T7 sequence (P00760 24-246): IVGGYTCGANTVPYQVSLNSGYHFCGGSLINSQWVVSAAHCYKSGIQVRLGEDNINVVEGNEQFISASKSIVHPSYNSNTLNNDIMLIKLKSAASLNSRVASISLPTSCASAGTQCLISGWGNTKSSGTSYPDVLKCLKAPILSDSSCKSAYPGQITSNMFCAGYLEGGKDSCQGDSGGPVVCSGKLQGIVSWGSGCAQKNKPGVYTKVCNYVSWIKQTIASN
The series can be described thus: Inactivation rate of bovine trypsin. It counts as biochemical. The conditions noted are these: Table VIII; pH 7.5, 25° C; [I] 1.1-4.6 μM; read-out: kobs/[I]. The gist of the method:
as §7

The results in this text go back to patent US5324648A, “Substituted isocoumarins as serine protease inhibitors and anti-inflammatory agents” (Georgia Tech Research Corporation, priority 1992, dated 1994).

T2 sequence (P00742 235-488 limits assumed): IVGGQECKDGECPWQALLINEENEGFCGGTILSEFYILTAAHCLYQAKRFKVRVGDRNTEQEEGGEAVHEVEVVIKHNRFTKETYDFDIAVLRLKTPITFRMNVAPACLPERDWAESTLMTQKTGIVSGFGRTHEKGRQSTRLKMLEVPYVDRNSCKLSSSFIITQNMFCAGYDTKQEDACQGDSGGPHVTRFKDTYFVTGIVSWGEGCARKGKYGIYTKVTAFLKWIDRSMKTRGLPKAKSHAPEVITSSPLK
T2 sequence (P00742 41-179 partner limits assumed): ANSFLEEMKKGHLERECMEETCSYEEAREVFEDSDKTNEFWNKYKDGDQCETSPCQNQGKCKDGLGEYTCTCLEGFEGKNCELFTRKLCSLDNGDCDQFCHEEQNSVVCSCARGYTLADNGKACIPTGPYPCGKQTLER
T6 sequence (P27435 29-273): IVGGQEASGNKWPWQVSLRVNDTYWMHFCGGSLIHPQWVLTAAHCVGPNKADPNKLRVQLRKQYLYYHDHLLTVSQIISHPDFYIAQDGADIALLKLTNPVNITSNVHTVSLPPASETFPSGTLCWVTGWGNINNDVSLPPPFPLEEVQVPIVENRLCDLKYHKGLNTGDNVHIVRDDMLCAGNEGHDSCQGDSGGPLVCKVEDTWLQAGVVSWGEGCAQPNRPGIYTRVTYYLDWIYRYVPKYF
Sequence of recombinant human tissue plasminogen activator (P00750 36-562): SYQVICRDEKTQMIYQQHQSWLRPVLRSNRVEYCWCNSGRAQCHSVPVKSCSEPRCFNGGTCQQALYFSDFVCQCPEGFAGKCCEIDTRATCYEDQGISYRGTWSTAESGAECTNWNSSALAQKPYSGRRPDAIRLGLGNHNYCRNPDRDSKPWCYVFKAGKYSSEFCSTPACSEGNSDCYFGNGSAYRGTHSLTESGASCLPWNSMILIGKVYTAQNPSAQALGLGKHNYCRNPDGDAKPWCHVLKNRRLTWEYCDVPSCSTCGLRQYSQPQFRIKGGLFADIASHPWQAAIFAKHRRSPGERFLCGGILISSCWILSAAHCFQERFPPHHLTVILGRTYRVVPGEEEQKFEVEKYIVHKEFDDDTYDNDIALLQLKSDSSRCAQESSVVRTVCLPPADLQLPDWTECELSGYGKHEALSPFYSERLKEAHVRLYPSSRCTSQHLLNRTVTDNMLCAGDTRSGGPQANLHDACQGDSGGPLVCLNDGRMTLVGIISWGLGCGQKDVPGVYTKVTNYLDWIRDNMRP
Sequence of complement protein B (P00751 26-764): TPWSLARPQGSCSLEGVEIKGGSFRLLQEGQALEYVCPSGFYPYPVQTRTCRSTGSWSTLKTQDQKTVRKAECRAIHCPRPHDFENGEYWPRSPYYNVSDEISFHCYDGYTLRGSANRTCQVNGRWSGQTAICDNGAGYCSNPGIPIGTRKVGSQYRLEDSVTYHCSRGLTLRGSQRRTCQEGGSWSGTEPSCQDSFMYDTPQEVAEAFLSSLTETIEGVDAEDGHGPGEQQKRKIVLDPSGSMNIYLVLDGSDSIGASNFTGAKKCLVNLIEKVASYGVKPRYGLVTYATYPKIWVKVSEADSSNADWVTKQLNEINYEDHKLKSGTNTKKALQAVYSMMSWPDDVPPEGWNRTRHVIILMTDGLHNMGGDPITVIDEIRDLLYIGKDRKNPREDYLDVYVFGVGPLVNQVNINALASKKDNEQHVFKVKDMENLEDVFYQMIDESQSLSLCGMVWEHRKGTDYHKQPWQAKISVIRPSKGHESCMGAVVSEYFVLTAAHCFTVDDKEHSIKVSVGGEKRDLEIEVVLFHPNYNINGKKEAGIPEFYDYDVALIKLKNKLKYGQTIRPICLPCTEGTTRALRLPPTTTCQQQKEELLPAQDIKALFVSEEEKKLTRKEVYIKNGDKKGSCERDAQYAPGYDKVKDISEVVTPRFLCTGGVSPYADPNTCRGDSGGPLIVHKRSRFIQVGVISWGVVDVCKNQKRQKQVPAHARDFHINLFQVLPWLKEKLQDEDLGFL
Sequence of complement protein D (P00746 26-253): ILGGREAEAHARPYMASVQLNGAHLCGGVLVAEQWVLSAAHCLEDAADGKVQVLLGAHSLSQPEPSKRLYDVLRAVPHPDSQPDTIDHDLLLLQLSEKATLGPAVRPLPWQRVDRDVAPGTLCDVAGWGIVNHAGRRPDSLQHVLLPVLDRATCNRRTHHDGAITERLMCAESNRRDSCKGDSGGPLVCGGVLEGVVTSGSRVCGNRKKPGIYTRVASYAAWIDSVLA

With `N=C(N)c1ccc(CS(=O)(=O)F)cc1` [APMSF, 4-amidinophenylmethane sulfonyl fluoride, reference compound], the “kobs/[I]” value came to 230 M⁻¹ s⁻¹ in series [1] and 110 M⁻¹ s⁻¹ at complement protein D. For the same molecule, the “inhibition of protein B (in words)” value against complement protein B is listed as “do not show any inhibition”. Moreover, the “inhibition of C2 (in words)” value at complement protein C2 is “do not show any inhibition”.

For the molecule `N=C(N)SCCOc1oc(=O)c2cc(NC(=O)[C@H](N)Cc3ccccc3)ccc2c1Cl` [D-Phe--NH-CiTEtOIC, 7-(D-phenylalanylamino)-4-chloro-3-(2-isothiureidoethoxy)isocoumarin], the “kobs/[I]” value at human lung tryptase is listed as 60,000 M^-1 s^-1; on human skin tryptase it was 62,000 M^-1 s^-1. For the same molecule, the kinact/KI at human factor Xa is 3070 M⁻¹ s⁻¹; on human factor XIIa, 82000 M⁻¹ s⁻¹; at human thrombin, 3070 M⁻¹ s⁻¹; at bovine thrombin, 4240 M⁻¹ s⁻¹; at rat skin tryptase it was 360000 M⁻¹ s⁻¹; in [2] it was 15000 M⁻¹ s⁻¹.

Regarding `N=C(N)SCCCOc1oc(=O)c2cc(NC(=O)Nc3ccccc3)ccc2c1Cl` [PhNHCONH-CiTPrOIC, 7-(phenylcarbamoylamino)-4-chloro-3-(3-isothiureidopropoxy)isocoumarin], the “kobs/[I]” value is given as 140,000 M^-1 s^-1 at human lung tryptase and 38,000 M^-1 s^-1 on human skin tryptase. Also, the “t1/2 for spontaneous hydrolysis” value in series [3] stood at 2.47 h. Besides, the kinact/KI at human factor Xa worked out at 50 M⁻¹ s⁻¹; on bovine trypsin, 63000 M⁻¹ s⁻¹; at human factor XIIa, 7720 M⁻¹ s⁻¹; on human thrombin, 1840 M⁻¹ s⁻¹; at bovine thrombin, 970 M⁻¹ s⁻¹; on rat skin tryptase, 250000 M⁻¹ s⁻¹. The kinact/KI in [2] came out at 19000 M⁻¹ s⁻¹.
